How the values were obtained:
Experiment in all cases: two-electrode voltage clamp, Xenopus oocytes
Assay type in all cases: cell-based
Settings in all cases: pH 7.6 Ringer's buffer, -80 mV, co-expressed OfurOrco, agonist
OfurOR5b = target: T1, OfurOR5b (Ostrinia furnacalis, UniProt M4NPQ0)
T1 construct: gene OR5b; full-length ORF from male antennal cDNA, untagged, in PT7TS; cRNA co-injected 1:1 with OfurOrco in Xenopus oocytes; with Odorant receptor co-receptor (Orco)
T1 sequence (M4NPQ0 1-424): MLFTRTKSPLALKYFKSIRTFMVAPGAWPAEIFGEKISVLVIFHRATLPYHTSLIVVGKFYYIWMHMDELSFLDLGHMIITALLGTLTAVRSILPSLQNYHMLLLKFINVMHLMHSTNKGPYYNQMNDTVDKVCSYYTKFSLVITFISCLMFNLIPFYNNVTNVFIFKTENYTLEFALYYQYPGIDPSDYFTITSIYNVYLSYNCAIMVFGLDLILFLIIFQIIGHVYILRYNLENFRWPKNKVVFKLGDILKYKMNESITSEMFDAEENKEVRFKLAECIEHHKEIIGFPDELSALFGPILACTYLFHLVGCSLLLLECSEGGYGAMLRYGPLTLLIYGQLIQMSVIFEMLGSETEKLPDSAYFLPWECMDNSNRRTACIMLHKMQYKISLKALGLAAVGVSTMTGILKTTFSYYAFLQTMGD
T1 sequence (A0A0E4B591 1-474 partner): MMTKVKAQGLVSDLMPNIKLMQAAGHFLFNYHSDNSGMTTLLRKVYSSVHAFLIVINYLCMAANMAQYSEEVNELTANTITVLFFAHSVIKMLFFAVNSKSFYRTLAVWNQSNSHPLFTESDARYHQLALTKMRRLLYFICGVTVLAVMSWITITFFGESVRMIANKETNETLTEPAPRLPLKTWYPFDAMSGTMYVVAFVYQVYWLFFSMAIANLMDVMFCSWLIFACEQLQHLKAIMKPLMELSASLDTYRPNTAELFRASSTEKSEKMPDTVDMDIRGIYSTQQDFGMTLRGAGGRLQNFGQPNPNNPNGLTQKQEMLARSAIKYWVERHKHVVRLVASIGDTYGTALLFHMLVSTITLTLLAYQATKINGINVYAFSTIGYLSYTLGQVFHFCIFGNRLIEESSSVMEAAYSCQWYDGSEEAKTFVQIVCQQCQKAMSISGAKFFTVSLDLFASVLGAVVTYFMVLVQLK

OfurOR4 = target: T2, OfurOR4 (Ostrinia furnacalis, UniProt A0A0E3VLP9)
T2 construct: gene OR4; full-length ORF from male antennal cDNA, untagged, in PT7TS; cRNA co-injected 1:1 with OfurOrco in Xenopus oocytes; naming of Yang et al. 2015 (group OR4 = OnubOR3 of Wanner/Leary); with Odorant receptor co-receptor (Orco)
T2 sequence (A0A0E3VLP9 1-422): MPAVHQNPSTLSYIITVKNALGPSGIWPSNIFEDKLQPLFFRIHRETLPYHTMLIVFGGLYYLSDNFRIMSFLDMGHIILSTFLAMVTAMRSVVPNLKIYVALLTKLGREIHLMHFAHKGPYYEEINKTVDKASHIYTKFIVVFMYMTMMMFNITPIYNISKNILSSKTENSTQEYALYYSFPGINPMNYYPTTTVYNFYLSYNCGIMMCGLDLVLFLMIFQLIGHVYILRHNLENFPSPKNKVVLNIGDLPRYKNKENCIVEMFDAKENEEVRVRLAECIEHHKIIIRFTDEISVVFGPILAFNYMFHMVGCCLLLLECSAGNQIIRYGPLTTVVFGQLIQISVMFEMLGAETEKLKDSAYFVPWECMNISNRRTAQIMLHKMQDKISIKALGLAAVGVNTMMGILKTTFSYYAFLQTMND
T2 sequence (A0A0E4B591 1-474 partner): T1 sequence (A0A0E4B591 1-474 partner)

OfurOR8 = target: T3, OfurOR8 (Ostrinia furnacalis, UniProt A0A0E4B5G7)
T3 construct: gene OR8; full-length ORF from male antennal cDNA, untagged, in PT7TS; cRNA co-injected 1:1 with OfurOrco in Xenopus oocytes; naming of Yang et al. 2015; with Odorant receptor co-receptor (Orco)
T3 sequence (A0A0E4B5G7 1-437): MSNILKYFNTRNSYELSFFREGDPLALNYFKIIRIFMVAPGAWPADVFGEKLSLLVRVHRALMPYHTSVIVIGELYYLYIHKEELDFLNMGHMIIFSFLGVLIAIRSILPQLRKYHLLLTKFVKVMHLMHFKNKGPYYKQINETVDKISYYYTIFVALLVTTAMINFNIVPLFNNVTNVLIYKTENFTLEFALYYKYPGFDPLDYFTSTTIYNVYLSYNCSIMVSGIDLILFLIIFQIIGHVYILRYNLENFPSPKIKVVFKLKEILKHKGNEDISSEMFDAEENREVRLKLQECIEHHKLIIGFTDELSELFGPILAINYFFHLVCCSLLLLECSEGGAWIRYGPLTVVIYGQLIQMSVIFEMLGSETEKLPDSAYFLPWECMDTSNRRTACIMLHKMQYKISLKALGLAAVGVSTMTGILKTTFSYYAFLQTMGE
T3 sequence (A0A0E4B591 1-474 partner): T1 sequence (A0A0E4B591 1-474 partner)

OfurOR7 = target: T4, OfurOR7 (Ostrinia furnacalis, UniProt M4NKX7)
T4 construct: gene OR7; full-length ORF from male antennal cDNA, untagged, in PT7TS; cRNA co-injected 1:1 with OfurOrco in Xenopus oocytes; naming of Yang et al. 2015; with Odorant receptor co-receptor (Orco)
T4 sequence (M4NKX7 1-428): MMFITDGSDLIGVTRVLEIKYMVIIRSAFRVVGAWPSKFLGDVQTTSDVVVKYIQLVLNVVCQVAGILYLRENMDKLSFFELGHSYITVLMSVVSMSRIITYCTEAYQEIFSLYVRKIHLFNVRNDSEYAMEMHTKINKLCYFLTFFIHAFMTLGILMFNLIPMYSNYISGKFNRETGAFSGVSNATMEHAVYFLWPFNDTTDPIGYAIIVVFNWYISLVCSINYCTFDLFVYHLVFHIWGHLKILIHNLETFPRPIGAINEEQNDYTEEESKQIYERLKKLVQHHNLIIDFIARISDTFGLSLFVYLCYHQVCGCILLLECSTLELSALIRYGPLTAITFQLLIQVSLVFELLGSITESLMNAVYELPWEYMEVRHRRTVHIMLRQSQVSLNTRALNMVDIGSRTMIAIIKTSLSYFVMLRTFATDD
T4 sequence (A0A0E4B591 1-474 partner): T1 sequence (A0A0E4B591 1-474 partner)

OfurOR6 = target: T5, OfurOR6 (Ostrinia furnacalis, UniProt M4NL06)
T5 construct: gene OR6; full-length ORF from male antennal cDNA, untagged, in PT7TS; cRNA co-injected 1:1 with OfurOrco in Xenopus oocytes; naming of Yang et al. 2015; with Odorant receptor co-receptor (Orco)
T5 sequence (M4NL06 1-421): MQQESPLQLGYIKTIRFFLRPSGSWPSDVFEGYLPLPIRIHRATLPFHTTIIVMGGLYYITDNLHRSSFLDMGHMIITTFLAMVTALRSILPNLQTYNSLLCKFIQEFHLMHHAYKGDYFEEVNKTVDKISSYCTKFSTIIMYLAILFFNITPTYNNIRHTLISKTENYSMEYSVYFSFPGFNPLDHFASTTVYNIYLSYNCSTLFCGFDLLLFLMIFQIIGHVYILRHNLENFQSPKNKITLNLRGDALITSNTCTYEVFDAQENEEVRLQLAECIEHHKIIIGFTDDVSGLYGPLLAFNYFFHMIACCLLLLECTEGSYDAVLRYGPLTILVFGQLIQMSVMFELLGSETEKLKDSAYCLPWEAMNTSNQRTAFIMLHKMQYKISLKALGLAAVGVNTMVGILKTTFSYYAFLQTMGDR
T5 sequence (A0A0E4B591 1-474 partner): T1 sequence (A0A0E4B591 1-474 partner)

current at 100 μM (OfurOR8) [nA] | current at 100 μM (OfurOR7) [nA] | current at 100 μM (OfurOR6) [nA] | current at 100 μM (OfurOR4; standard order of application (response depends on order)) [nA] | SMILES | current at 100 μM (OfurOR5b) | current at 100 μM (OfurOR4)
144.6 ± 28.3 | – | – | – | CC/C=C/CCCCCCCCCCOC(C)=O [E11-14:OAc, (E)-11-tetradecenyl acetate] | OfurOR5b broadly tuned to Z9-14:OAc, E11-14:OAc, Z11-14:OAc, E12-14:OAc, and Z12-14:OAc | inhibited the response of Z9-14:OAc, Z11-14:OAc, and E11-14:OAc
76.8 ± 14.1 | – | – | – | CC/C=C\CCCCCCCCCCOC(C)=O [Z11-14:OAc, (Z)-11-tetradecenyl acetate] | OfurOR5b broadly tuned to Z9-14:OAc, E11-14:OAc, Z11-14:OAc, E12-14:OAc, and Z12-14:OAc | inhibited the response of Z9-14:OAc, Z11-14:OAc, and E11-14:OAc
8.5 ± 5.2 | 212.2 ± 46.3 | – | – | CCCC/C=C\CCCCCCCCOC(C)=O [Z9-14:OAc, (Z)-9-tetradecenyl acetate] | OfurOR5b broadly tuned to Z9-14:OAc, E11-14:OAc, Z11-14:OAc, E12-14:OAc, and Z12-14:OAc | inhibited the response of Z9-14:OAc, Z11-14:OAc, and E11-14:OAc
– | – | – | – | C/C=C\CCCCCCCCCCCOC(C)=O [Z12-14:OAc, (Z)-12-tetradecenyl acetate] | OfurOR5b broadly tuned to Z9-14:OAc, E11-14:OAc, Z11-14:OAc, E12-14:OAc, and Z12-14:OAc | 1876.8 ± 165 nA
– | – | 140.7 ± 6.0 | 727.9 ± 120.4 | C/C=C/CCCCCCCCCCCOC(C)=O [E12-14:OAc, E-12-tetradecenyl acetate] | OfurOR5b broadly tuned to Z9-14:OAc, E11-14:OAc, Z11-14:OAc, E12-14:OAc, and Z12-14:OAc | –

Source: paper PMC5974041, “Functional Studies of Sex Pheromone Receptors in Asian Corn Borer Ostrinia furnacalis” (Frontiers in Physiology, 2018)
